The record followed here is patent US20200060276A1, “THIAZOLE COMPOUND AND HERBICIDE” (OAT Agrio Co., Ltd., priority 2017, published 2020).

Type in all cases: in vivo
For test [1], the system named is Echinochloa crus-galli (L.) P. Beauv. var. formosensis Ohwi. Nature of the test: Test for Herbicidal Effect in Flooding Treatment (#2), ECHDG at 2-2.5 leaf stage. The conditions noted are these: flooding treatment at 2-2.5 leaf stage, dose 0.2 kg/ha, visual observation on day 21. In outline:
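Scoring is a visual 0–5 scale of growth inhibition (0 below 10%, 5 at 90% or more or full withering), taken 21 days after treatment in a glasshouse. Dose was 0.2 kg/ha, applied as acetone/Tween 80 aqueous solution onto flooded soil once seedlings reached the 2–2.5 leaf stage.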

The test system is the same in test [2]. Nature of the test: Test for Herbicidal Effect in Flooding Treatment (#1), ECHDG. The following applies: flooding treatment at seeding, dose 2 kg/ha, visual observation on day 21. In outline:
(§1)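 Sieved soil in cups was flooded and left 24 h before weed seeds were sown. Compounds in acetone, diluted with Tween 80-containing water, were dropped over the whole surface at 2 kg/ha. After 21 days in a glasshouse, growth inhibition was scored visually from 0 (<10%) to 5 (≥90% or complete withering).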

A further test deals with Monochoria vaginalis. Nature of the test: Test for Herbicidal Effect in Flooding Treatment (#1), MONVA. The conditions noted are these: flooding treatment at seeding, dose 2 kg/ha, visual observation on day 21. In outline: as §1
The subject of the next test is Scirpus juncoides. Nature of the test: Test for Herbicidal Effect in Flooding Treatment (#1), SCIJU. The following applies: flooding treatment at seeding, dose 2 kg/ha, visual observation on day 21. In outline: as §1

With `O=S(=O)(Cc1c(F)cccc1OCC(F)(F)C(F)F)c1ncc(Cl)s1` [Compound 1C-60, 5-chloro-2-{[2-(2,2,3,3-tetrafluoropropoxy)-6-fluorophenyl][methanesulfonyl]}-1,3-thiazole], the “ECHDG (2-2.5L) #2 herbicidal effect (growth inhibition grade)” value in test [1] is 5 (Growth inhibition effect is equal to or greater than 90%, or complete withering is achieved). In addition, the “ECHDG #1 herbicidal effect (growth inhibition grade)” value in test [2] was 5 (Growth inhibition effect is equal to or greater than 90%, or complete withering is achieved). Besides, in the test on Monochoria vaginalis, the “MONVA #1 herbicidal effect (growth inhibition grade)” value is recorded as 5 (Growth inhibition effect is equal to or greater than 90%, or complete withering is achieved). Moreover, in the test with Scirpus juncoides, the “SCIJU #1 herbicidal effect (growth inhibition grade)” value was 5 (Growth inhibition effect is equal to or greater than 90%, or complete withering is achieved).

Regarding `O=S(=O)(Cc1c(F)cccc1OCC(F)(F)C(F)(F)F)c1ncc(Cl)s1` [Compound 1C-61], the “ECHDG (2-2.5L) #2 herbicidal effect (growth inhibition grade)” value in test [1] was 5 (Growth inhibition effect is equal to or greater than 90%, or complete withering is achieved). Moreover, the “ECHDG #1 herbicidal effect (growth inhibition grade)” value in test [2] is on record as 5 (Growth inhibition effect is equal to or greater than 90%, or complete withering is achieved). The “MONVA #1 herbicidal effect (growth inhibition grade)” value in the test with Monochoria vaginalis is 5 (Growth inhibition effect is equal to or greater than 90%, or complete withering is achieved). Also, in the test with Scirpus juncoides, the “SCIJU #1 herbicidal effect (growth inhibition grade)” value is recorded as 5 (Growth inhibition effect is equal to or greater than 90%, or complete withering is achieved).

Take `O=S(=O)(Cc1c(Cl)cccc1OCC(F)(F)C(F)(F)F)c1ncc(Cl)s1` [Compound 1C-62]: the “ECHDG (2-2.5L) #2 herbicidal effect (growth inhibition grade)” value in test [1] was 4 (Growth inhibition effect is equal to or greater than 70%, and less than 90%). Also, the “ECHDG #1 herbicidal effect (growth inhibition grade)” value in test [2] is recorded as 5 (Growth inhibition effect is equal to or greater than 90%, or complete withering is achieved). Moreover, the “MONVA #1 herbicidal effect (growth inhibition grade)” value in the test with Monochoria vaginalis is 5 (Growth inhibition effect is equal to or greater than 90%, or complete withering is achieved). Further, the “SCIJU #1 herbicidal effect (growth inhibition grade)” value in the test with Scirpus juncoides is on record as 5 (Growth inhibition effect is equal to or greater than 90%, or complete withering is achieved).

On to `O=S(=O)(Cc1c(F)cccc1OCCCC(F)(F)F)c1ncc(Cl)s1` [Compound 1C-63], for which the “ECHDG (2-2.5L) #2 herbicidal effect (growth inhibition grade)” value in test [1] was 3 (Growth inhibition effect equal to or greater than 50%, and less than 70%). Also, in test [2], the “ECHDG #1 herbicidal effect (growth inhibition grade)” value is listed as 5 (Growth inhibition effect is equal to or greater than 90%, or complete withering is achieved). For the same compound, the “MONVA #1 herbicidal effect (growth inhibition grade)” value with Monochoria vaginalis is on record as 5 (Growth inhibition effect is equal to or greater than 90%, or complete withering is achieved). Besides, in the test with Scirpus juncoides, the “SCIJU #1 herbicidal effect (growth inhibition grade)” value is given as 5 (Growth inhibition effect is equal to or greater than 90%, or complete withering is achieved).

Turning to `COc1ccc(Cl)c(CS(=O)(=O)c2ncc(Cl)s2)c1Cl` [Compound 1C-73], in test [1], the “ECHDG (2-2.5L) #2 herbicidal effect (growth inhibition grade)” value was 5 (Growth inhibition effect is equal to or greater than 90%, or complete withering is achieved). Besides, in test [2], the “ECHDG #1 herbicidal effect (growth inhibition grade)” value was 5 (Growth inhibition effect is equal to or greater than 90%, or complete withering is achieved). Also, the “MONVA #1 herbicidal effect (growth inhibition grade)” value with Monochoria vaginalis is 5 (Growth inhibition effect is equal to or greater than 90%, or complete withering is achieved). Further, the “SCIJU #1 herbicidal effect (growth inhibition grade)” value with Scirpus juncoides is 5 (Growth inhibition effect is equal to or greater than 90%, or complete withering is achieved).

As for `[2H]C([2H])(c1c(OCC)ccc(Cl)c1Cl)S(=O)(=O)c1ncc(Cl)s1` [Compound 1C-130, 5-chloro-2-{[2-ethoxy-5,6-dichlorophenyl][dideuterium(methanesulfonyl)]}-1,3-thiazole], in test [1], the “ECHDG (2-2.5L) #2 herbicidal effect (growth inhibition grade)” value is listed as 5 (Growth inhibition effect is equal to or greater than 90%, or complete withering is achieved). For the same compound, the “ECHDG #1 herbicidal effect (growth inhibition grade)” value in test [2] is 5 (Growth inhibition effect is equal to or greater than 90%, or complete withering is achieved). Besides, the “MONVA #1 herbicidal effect (growth inhibition grade)” value in the test on Monochoria vaginalis is listed as 5 (Growth inhibition effect is equal to or greater than 90%, or complete withering is achieved). The “SCIJU #1 herbicidal effect (growth inhibition grade)” value in the test with Scirpus juncoides is given as 5 (Growth inhibition effect is equal to or greater than 90%, or complete withering is achieved).
